# Values of other authors in patent US8715726B2 (Eurofarma Laboratories S.A., priority 2007, dated 2014).
compound,measurement,setting,value
"COc1cccc(C2(O)CCCCC2CN(C)C)c1 (stereo not drawn) [Tramadol, 2-((dimethylamino)methyl)-1-(m-methoxyphenyl)-cyclohexanol]",metabolism,in vivo,extensively metabolised in the liver
same,dose excreted in the form of metabolites,oral administration,60%
same,dose excreted in the urine not having been metabolised,oral administration,Approximately 30%
